Source: paper PMC6530997, “Asymmetry in catalysis by Thermotoga maritima membrane-bound pyrophosphatase demonstrated by a nonphosphorus allosteric inhibitor” (Science Advances, 2019)
Where two headings read alike, the source gives them in different places.

Key:
[1] = test system: PfPPase-VP1 (in membrane); assay: Inhibition of PfPPase-VP1 in isolated membranes; format: biochemical; conditions: PfPPase IC50 versus TmPPase IC50
From the text: (§1) Fig. S6. Effect of ATC on growth of P. falciparum and on PfPPase. (A) Inhibition effect of ATC on PfPPase-VP1 (in membrane) from P. falciparum expressed in insect cell baculovirus expression system (method and further analysis will be described in more detail elsewhere). ATC […]
(§2) (B) ATC has no anti-plasmodial […]
(§3) activity up to 100  µM. (C) Anti-plasmodial activity of artemisinin, as a positive control.
(§4) (1 picture or pasted object on this page, not shown here)

[2] = target: PfPPase-VP1 (in membrane) (Plasmodium falciparum, UniProt Q8IKR1); assay: Inhibition of PfPPase-VP1 in isolated membranes; format: biochemical
From the text: as §1, §2, §3, §4

[3] = target: T1, TmPPase (Thermotoga maritima, UniProt Q9S5X0); assay: TmPPase activity inhibition, molybdenum blue 96-well plate assay; format: biochemical; conditions: for IC50: purified TmPPase in DDM, 71°C, 2 min; for activity against TmPPase (in words): SAR discussion; for fold less active / weaker than ATC: IC50 relative to ATC
T1 construct: His; made in house; host or cells: Saccharomyces cerevisiae strain BJ1991
From the text: The screening process that led to the discovery of compound 1 (ATC) will be described in more detail elsewhere. Briefly, we tested compounds using a recently developed 96-well plate assay with TmPPase as a model system ([37]). The screening collections included compounds synthesized in our laboratories. The identification of ATC as an inhibitor was followed by the test of analogs 2 to 5. ATC and its analogs were initially developed for their antimicrobial, antiviral, and anticancer activities, as reported elsewhere ([38]).
(§5) TmPPase activity, compound screening, and kinetic experiments were done using the molybdenum blue reaction method in a purified protein solubilized in DDM ([37]). Initial reaction rates of TmPPase were determined using PPi as the substrate and ATC as the inhibitor at varying concentrations. The concentration of MgCl2 and Na4PPi required to maintain 5 mM free Mg^2+ at pH 8.0 was approximated as described previously ([41]). The reaction was done in reaction buffer [60 mM tris-HCl (pH 8.0), 5 mM free Mg^2+, 100 mM KCl, and 10 mM NaCl] at 71°C for 2 min. We chose a 2-min reaction time as it still produces a reaction product in a linear range (fig. S7).

[4] = test system: Plasmodium falciparum strain 3D7; assay: Anti-plasmodial activity assay (SYBR Green I, 72 h); format: cell-based
Description: Size-exclusion chromatography – Multi angle laser light scattering (SEC-MALLS) 50  µg of TmPPase purified in DDM with IDP (1 mM) and IDP+ATC (1 mM each) were run through a Superdex 200 10/300 GL equilibrated with a buffer containing 50 mM MES-NaOH pH 6.5, 50 mM KCl, 5 mM MgCl2, 2 mM DTT and 0.05% DDM using a HPLC-system (Shimadzu).
The eluted samples from the column were analysed using UV-absorbance, refractive index (Optilab rEX, Wyatt) and multi angle laser light scattering (miniDAWN TREOS, Wyatt) detectors and the enzyme molecular mass was calculated using ASTRA software (Wyatt).
Anti-plasmodial activity assay
For the in vitro anti-plasmodial activity assay, Plasmodium falciparum strain 3D7 was maintained in culture as described previously (56). Briefly, parasites were cultured in O+ human erythrocytes at 5% haematocrit in RPMI-1640 medium supplemented with 0.5% Albumax II (Gibco, Carlsbad, CA, USA), 200 μM hypoxanthine (Sigma, St. Louis, MO, USA) and 20 μg ml-1 gentamycin (Gibco). […]
Fifty microliters of each dilution were mixed in a 96-well plate with 150 µl of 2% haematocrit of 0.5% parasitemia (ring stage). After 72 h incubation at 37 °C, the parasite growth was quantified using fluorescent SYBR Green I®-based assay as described (58). The half-maximal inhibitory concentration (IC50) of the test compound was assessed by non-linear regression in Prism 7 (GraphPad Software). […]

[5] = target: T1, TmPPase; assay: Kinetic analysis of ATC inhibition of PPi hydrolysis by TmPPase; format: biochemical
Description: As ATC is a potent inhibitor, we further characterized its effect on the rate of substrate (PPi) hydrolysis using a range of ATC concentrations (0.0 to 12.0 μM). We performed the kinetic assay using PPi concentrations from 0 to 1714 μM at 71°C with a single-point measurement at 2 min (Fig. 4D), having shown that this is within the linear range for initial rates (fig. S7).
The model is a variant on that used by Artukka et al. ([23]) and is required as there is half-of-the-sites reactivity. The sum of squares when fitting the inhibition curves with an ATC monomer (i.e., n = 1 in Fig. 5) is 5268, and the SD of the residuals (Sy.x) is 4.3; when fitting an ATC dimer, the values are 855 and 1.8, respectively. […] This means that ATC binds as a dimer to TmPPase.
as §5
For analysis, we used a variant of Artukka and co-workers’ method ([23]), which assumes that the two active sites in an mPPase dimer interact allosterically, with the addition of inhibitor binding to the two active sites (Fig. 5). E2 represents the dimeric enzyme, S is the substrate (Na4PPi), I is the inhibitor (ATC), and n is the number of ATC molecules bound to the enzyme. KS is a microscopic Michaelis-Menten constant, and kp is the per-site maximum rate for the substrate complex. α is the factor relating the binding of the first substrate molecule (KS) to the binding of the second, β is the factor relating the rate of hydrolysis of the E2S complex (kp) to that of the E2S2 complex, and KI1obs, KI2obs, and KI3obs are the observed inhibition constants for binding to the E2, E2S, and E2S2 complexes.
For the mechanism in Fig. 5 with n = 2 (i.e., only inhibitor dimers bind), the rate Eq. 1 ([42]) is v=(2kp+2βkp[S]/αKs)/2(1+[I]^2/(KI2obs)^2)+(Ks/[S])(1+[I]^2/(KI1obs)^2)+([S]/αKs)(1+[I]^2/(KI3obs)^2) (1) where [S] and [I] correspond to substrate and inhibitor concentrations, respectively, and the equilibrium and Michaelis-type constants are as in Fig. 5. The kinetic data were fit together to obtain all parameter values and their SEs by nonlinear regression as a function of inhibitor (0, 1.0, 2.0, 4.0, 8.0, and 12.0 μM) and substrate (0 to 1714 μM) concentrations using Prism 6.0 (GraphPad Software). Eliminating the KI1 terms had no effect on the overall quality of fit.

[6] = target: T1, TmPPase; assay: as above; format: biochemical; conditions: PPi conc. 1721
[7] = PfPPase-VP1 expressed in insect cell baculovirus system

PfPPase-VP1 (in membrane) (Plasmodium falciparum, UniProt Q8IKR1), sequence (Q8IKR1 entry or part of it): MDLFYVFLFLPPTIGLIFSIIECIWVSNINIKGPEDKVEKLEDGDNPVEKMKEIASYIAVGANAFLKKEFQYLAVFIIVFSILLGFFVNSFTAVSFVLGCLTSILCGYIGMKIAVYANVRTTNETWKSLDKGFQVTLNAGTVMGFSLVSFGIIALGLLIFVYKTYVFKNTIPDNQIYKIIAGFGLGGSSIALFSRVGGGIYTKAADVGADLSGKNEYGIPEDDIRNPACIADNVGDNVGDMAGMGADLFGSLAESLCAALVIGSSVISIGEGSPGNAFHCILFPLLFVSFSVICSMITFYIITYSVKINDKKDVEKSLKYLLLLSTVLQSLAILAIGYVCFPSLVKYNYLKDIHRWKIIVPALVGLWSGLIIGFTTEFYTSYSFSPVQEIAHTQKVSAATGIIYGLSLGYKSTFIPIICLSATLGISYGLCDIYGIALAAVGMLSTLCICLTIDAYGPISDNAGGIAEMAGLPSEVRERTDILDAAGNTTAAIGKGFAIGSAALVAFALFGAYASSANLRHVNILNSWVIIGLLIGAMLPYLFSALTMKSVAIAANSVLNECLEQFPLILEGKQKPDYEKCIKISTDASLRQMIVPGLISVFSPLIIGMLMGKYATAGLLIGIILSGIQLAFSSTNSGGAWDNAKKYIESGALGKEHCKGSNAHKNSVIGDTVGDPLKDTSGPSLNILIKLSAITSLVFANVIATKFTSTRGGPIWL
T1 sequence (Q9S5X0 whole entry): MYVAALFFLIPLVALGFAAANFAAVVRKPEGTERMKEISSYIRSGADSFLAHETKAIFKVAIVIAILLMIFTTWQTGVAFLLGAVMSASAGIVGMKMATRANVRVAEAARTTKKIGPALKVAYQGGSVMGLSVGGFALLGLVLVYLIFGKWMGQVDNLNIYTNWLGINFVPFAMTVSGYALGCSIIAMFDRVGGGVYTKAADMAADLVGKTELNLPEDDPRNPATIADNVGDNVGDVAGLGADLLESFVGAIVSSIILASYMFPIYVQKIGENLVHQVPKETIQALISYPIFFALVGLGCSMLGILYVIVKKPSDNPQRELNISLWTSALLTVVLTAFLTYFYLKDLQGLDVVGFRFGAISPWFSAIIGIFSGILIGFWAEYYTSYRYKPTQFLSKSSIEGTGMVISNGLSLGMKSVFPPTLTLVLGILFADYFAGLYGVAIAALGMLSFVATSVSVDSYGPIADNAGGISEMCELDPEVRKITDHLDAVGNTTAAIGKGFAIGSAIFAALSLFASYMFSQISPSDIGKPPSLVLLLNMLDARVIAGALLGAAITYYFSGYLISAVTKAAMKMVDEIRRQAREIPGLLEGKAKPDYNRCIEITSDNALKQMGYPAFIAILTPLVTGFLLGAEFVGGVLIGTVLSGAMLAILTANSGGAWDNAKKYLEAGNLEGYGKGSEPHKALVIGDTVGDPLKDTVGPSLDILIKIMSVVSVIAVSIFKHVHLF

Nc1nc2ccc(CNC(=O)c3cc4ccccc4[nH]3)cc2s1 [ATC, N-[(2-amino-6-benzothiazolyl)methyl]-1H-indole-2-carboxamide]
fold lower than in T. maritima test system [1]: at least 40 fold | IC50 [2, 7]: 83.6 µM | logIC50 [2, 7]: 1.9 | IC50 ([2]; isolated P. falciparum membranes, preliminary studies): ~80 µM | IC50 [3]: 1.7 µM | anti-plasmodial activity (in words) ([4]; P. falciparum survival assays): did not show any anti-plasmodial activity | IC50 ([4]; Plasmodium falciparum, P. falciparum 3D7, 72 h, read-out: anti-plasmodial activity, highest concentration without activity): > 100 µM | mode of inhibition [5]: uncompetitive dimeric inhibitor | fold weaker binding to E2S2 than to E2S ([5]; KI3obs versus KI2obs): about 2.5 fold | Hill constant ([5]; PPi conc. 35): 2.8 | Hill constant ([5]; PPi conc. 71): 2.8 | Hill constant ([5]; PPi conc. 142): 1.9 | Hill constant ([5]; PPi conc. 1071): 2.2 | Hill constant ([5]; PPi conc. 1428): 1.9 | Hill constant ([5]; PPi conc. not printed (line between 142 and 1071)): 2.2 | Ki ([5]; binding to E2 (no substrate), data not shown, read-out: KI1 (mean value when included in the fit)): ≥ 250 µM | binding to E2 (in words) ([5]; enzyme without substrate): does not bind to E2 at concentrations we are able to achieve | Ki ([5]; observed inhibition constant for binding to the E2S2 complex, n = 2 (ATC dimer), read-out: KI3obs): 3.18 ± 0.15 µM | Ki ([5]; observed inhibition constant for binding to the E2S complex, n = 2 (ATC dimer), read-out: KI2obs): 1.37 ± 0.09 µM | Hill coefficient for ATC binding ([5]; substrate concentrations greater than 100 μM): 2 | Hill coefficient ([5]; very low substrate concentrations (below 100 μM)): 3 | Hill constant [6]: 2.0

Nc1nc2ccc(CNC(=O)c3nc4ccccc4[nH]3)cc2s1 [compound 9]
activity against TmPPase (in words) [3]: fully inactive | IC50 [3]: > 500 µM

Nc1nc2ccc(CNC(=O)c3ccccc3)cc2s1 [compound 2]
activity against TmPPase (in words) [3]: inactive | IC50 [3]: > 500 µM

Nc1nc2ccc(CNC(=O)c3ccco3)cc2s1 [compound 4]
fold less active / weaker than ATC [3]: approximately 10 fold

Nc1nc2ccc(CNC(=O)c3cccs3)cc2s1 [compound 3]
activity against TmPPase (in words) [3]: inactive | IC50 [3]: > 500 µM

Nc1nc2ccc(CNC(=O)c3cc4cccc(Br)c4[nH]3)cc2s1 [compound 6]
IC50 [3]: 21.4 µM

Nc1nc2ccc(CNC(=O)c3ccc[nH]3)cc2s1 [compound 5]
fold less active / weaker than ATC [3]: approximately 10 fold
